In US10323038B2, “Pyrazole compounds and methods of making and using same” (ABIDE THERAPEUTICS, INC., priority 2015, dated 2019):

Columns and labels:
[1] = biological target: MAGL (Mus musculus (Mouse), UniProt O35678); assay: In vitro competitive activity-based protein profiling, MAGL (mouse); type: biochemical; settings: for inhibition at 1 µM: read-out: MAGL % inh. 1 μM (mouse)
In short: (§1)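 Proteomes at 1.0 mg/mL protein (mouse brain membranes or cell lysates; human prefrontal cortex or cell membranes) preincubated with inhibitor 30 min at 37 °C. Then FP-Rh or HT-01 probe (50 μM stock) added for 30 min at 37 °C. MAGL and FAAH activity measured by SDS-PAGE band fluorescence.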

[2] = biological target: FAAH (Mus musculus (Mouse), UniProt O08914); assay: In vitro competitive activity-based protein profiling, FAAH (mouse); type: biochemical; settings: for inhibition at 1 µM: read-out: FAAH % inh. 1 μM (mouse)
In short: as §1

Chain of MAGL (O35678 whole entry): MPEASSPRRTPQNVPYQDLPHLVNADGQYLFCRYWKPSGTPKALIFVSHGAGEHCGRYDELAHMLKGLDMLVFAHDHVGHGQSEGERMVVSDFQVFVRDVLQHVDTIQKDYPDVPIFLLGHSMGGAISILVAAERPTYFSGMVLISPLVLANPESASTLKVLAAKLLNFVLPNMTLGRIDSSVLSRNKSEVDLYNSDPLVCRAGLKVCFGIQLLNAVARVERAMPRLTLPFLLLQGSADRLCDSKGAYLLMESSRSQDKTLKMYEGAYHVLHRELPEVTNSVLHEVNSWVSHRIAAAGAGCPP
Chain of FAAH (O08914 whole entry): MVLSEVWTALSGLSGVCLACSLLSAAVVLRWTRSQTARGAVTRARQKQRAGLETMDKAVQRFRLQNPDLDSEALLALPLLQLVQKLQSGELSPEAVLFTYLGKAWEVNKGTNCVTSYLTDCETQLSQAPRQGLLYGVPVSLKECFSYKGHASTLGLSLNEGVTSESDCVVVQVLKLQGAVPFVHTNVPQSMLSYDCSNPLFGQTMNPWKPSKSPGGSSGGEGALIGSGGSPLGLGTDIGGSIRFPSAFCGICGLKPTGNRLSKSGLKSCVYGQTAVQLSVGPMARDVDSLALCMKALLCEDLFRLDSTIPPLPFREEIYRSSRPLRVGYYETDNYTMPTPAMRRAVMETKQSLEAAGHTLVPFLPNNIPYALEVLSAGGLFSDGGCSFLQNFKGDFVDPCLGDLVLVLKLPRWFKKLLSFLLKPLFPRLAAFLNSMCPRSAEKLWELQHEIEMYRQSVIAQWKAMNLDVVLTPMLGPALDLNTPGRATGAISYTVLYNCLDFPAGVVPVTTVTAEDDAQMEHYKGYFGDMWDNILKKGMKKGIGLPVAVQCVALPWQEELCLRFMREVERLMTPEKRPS

| Compound | IC50 [1] [nM] | inhibition at 1 µM ([1]; 1 μM) [%] | IC50 [2] [nM] | inhibition at 1 µM ([2]; 1 μM) [%] | MAGL % inh. 1 μM (mouse) ([1]; 1 μM) | FAAH % inh. 1 μM (mouse) ([2]; 1 μM) |
| --- | --- | --- | --- | --- | --- | --- |
| CC(=O)N(C)c1cnn(C(=O)N2CC3CN(Cc4ccc(-c5ccccc5)cc4C)CC3C2)c1 (stereo not drawn) [Example 223, N-methyl-N-(1-(5-((3-methyl-[1,1′-biphenyl]-4-yl)methyl)octahydropyrrolo[3,4-c]pyrrole-2-carbonyl)-1H-pyrazol-4-yl)acetamide] | ≤ 100 | ≥ 75 | ≤ 100 | ≥ 75 |  |  |
| CC(=O)N(C)c1cnn(C(=O)N2CC3CN(Cc4ccc(-c5cncnc5)cc4Cl)CC3C2)c1 (stereo not drawn) [Example 259, N-(1-(5-(2-chloro-4-(pyrimidin-5-yl)benzyl)octahydropyrrolo[3,4-c]pyrrole-2-carbonyl)-1H-pyrazol-4-yl)-N-methylacetamide] |  | ≥ 75 |  | ≥ 75 |  |  |
| CC(=O)N(C)c1cnn(C(=O)N2CCN(Cc3ccccc3F)CC2)c1 [Example 211, N-(1-(4-(2-fluorobenzyl)piperazine-1-carbonyl)-1H-pyrazol-4-yl)-N-methylacetamide] |  | ≥ 75 |  | ≥ 75 |  |  |
| CC(=O)N(C)c1cnn(C(=O)N2CCC3(CC2)CN(Cc2ccc(N4CCOCC4)cc2Cl)C3)c1 [Example 28, N-(1-(2-(2-chloro-4-morpholinobenzyl)-2,7-diazaspiro[3.5]nonane-7-carbonyl)-1H-pyrazol-4-yl)-N-methylacetamide] |  | ≥ 75 |  | ≥ 75 |  |  |
| CS(=O)(=O)Nc1cnn(C(=O)N2CCN(Cc3ccc(-c4nccs4)cc3C(F)(F)F)CC2)c1 [Example 291, N-(1-(4-(4-(thiazol-2-yl)-2-(trifluoromethyl)benzyl)piperazine-1-carbonyl)-1H-pyrazol-4-yl)methanesulfonamide] |  | 50 to 75 |  | ≥ 75 |  |  |
| CC(=O)N(C)c1cnn(C(=O)N2CC3CN(Cc4cccc(Cl)c4)CC3C2)c1 (stereo not drawn) [Example 10, N-(1-(5-(3-chlorobenzyl)octahydropyrrolo[3,4-c]pyrrole-2-carbonyl)-1H-pyrazol-4-yl)-N-methylacetamide] | 100 to 1000 | ≥ 75 | 100 to 1000 | ≥ 75 |  |  |
| CC(=O)N(C)c1cnn(C(=O)N2C[C@H]3C[C@@H](N(C)Cc4ccc(N5C6CCC5COC6)c(C(F)(F)F)c4)C[C@H]3C2)c1 [Example 150, N-(1-(cis-5-((4-(3-oxa-8-azabicyclo[3.2.1]octan-8-yl)-3-(trifluoromethyl)benzyl)(methyl)amino)octahydrocyclopenta[c]pyrrole-2-carbonyl)-1H-pyrazol-4-yl)-N-methylacetamide] | 100 to 1000 | ≥ 75 | ≤ 100 | ≥ 75 |  |  |
| CC(=O)N(C)c1cnn(C(=O)N2CC3CN(Cc4cc(Cl)cc(Cl)c4)CC3C2)c1 (stereo not drawn) [Example 105, N-(1-(5-(3,5-dichlorobenzyl)octahydropyrrolo[3,4-c]pyrrole-2-carbonyl)-1H-pyrazol-4-yl)-N-methylacetamide] | ≤ 100 | ≥ 75 | ≤ 100 | ≥ 75 |  |  |
| CC(=O)Nc1cnn(C(=O)N2CCN(Cc3cc(N4CCCC4)cc(C(F)(F)F)c3)CC2)c1 [Example 227] | 100 to 1000 |  | 100 to 1000 |  | A (A = % inhibition greater than or equal to 75%) | B (B = % inhibition greater than or equal to 50% and less than 75%) |
| CC(=O)N(C)c1cnn(C(=O)N2CC3CN(Cc4ccc(N5C[C@@H]6C[C@H]5CN6C)cc4C(F)(F)F)CC3C2)c1 (stereo partly drawn) [Example 250, N-methyl-N-(1-(5-(4-((1S,4S)-5-methyl-2,5-diazabicyclo[2.2.1]heptan-2-yl)-2-(trifluoromethyl)benzyl)octahydropyrrolo [3,4-c]pyrrole-2-carbonyl)-1H-pyrazol-4-yl)acetamide] |  | ≥ 75 |  | 50 to 75 |  |  |
| CC(=O)N(C)c1cnn(C(=O)N2C[C@H]3C[C@H](N(C)Cc4cc(C(F)(F)F)ccc4Cl)C[C@H]3C2)c1 [Example 166, N-(1-(trans-5-((2-chloro-5-(trifluoromethyl)benzyl)(methyl)amino)octahydrocyclopenta[c]pyrrole-2-carbonyl)-1H-pyrazol-4-yl)-N-methylacetamide] |  | ≥ 75 |  | ≥ 75 |  |  |
| CC(=O)N(C)c1cnn(C(=O)N2CC3CN(Cc4ccc(F)cc4)CC3C2)c1 (stereo not drawn) [Example 178, N-(1-(5-(4-fluorobenzyl)octahydropyrrolo[3,4-c]pyrrole-2-carbonyl)-1H-pyrazol-4-yl)-N-methylacetamide] | 1000 to 10000 | 25 to 50 | 100 to 1000 | ≥ 75 |  |  |
| CC(=O)N(C)c1cnn(C(=O)N2CC3CN(Cc4cc(C(F)(F)F)ccc4C(F)(F)F)CC3C2)c1 (stereo not drawn) [Example 126, N-(1-(5-(2,5-bis(trifluoromethyl)benzyl)octahydropyrrolo[3,4-c]pyrrole-2-carbonyl)-1H-pyrazol-4-yl)-N-methylacetamide] |  | ≥ 75 |  | ≥ 75 |  |  |
| CC(=O)N(C)c1cnn(C(=O)N2C[C@H]3C[C@H](N(C)Cc4ccc(N5CCCC5)c(C(F)(F)F)c4)C[C@H]3C2)c1 [Example 159, N-methyl-N-(1-(trans-5-(methyl(4-(pyrrolidin-1-yl)-3-(trifluoromethyl)benzyl)amino)octahydrocyclopenta[c]pyrrole-2-carbonyl)-1H-pyrazol-4-yl)acetamide] |  | ≥ 75 |  | ≥ 75 |  |  |
| CC(=O)N(C)c1cnn(C(=O)N2CC3CN(Cc4ccc(OCC(=O)N5CCCC5)cc4Cl)CC3C2)c1 (stereo not drawn) [Example 189, N-(1-(5-(2-chloro-4-(2-oxo-2-(pyrrolidin-1-yl)ethoxy)benzyl)octahydropyrrolo[3,4-c]pyrrole-2-carbonyl)-1H-pyrazol-4-yl)-N-methylacetamide] | 1000 to 10000 | ≥ 75 | 100 to 1000 | 0 to 25 |  |  |
| CC(=O)N(C)c1cnn(C(=O)N2CC3CN(Cc4ccc(N5CCOCC5)cc4Cl)CC3C2)c1 (stereo not drawn) [Example 16, N-(1-(5-(2-chloro-4-morpholinobenzyl)octahydropyrrolo[3,4-c]pyrrole-2-carbonyl)-1H-pyrazol-4-yl)-N-methylacetamide] | ≤ 100 | ≥ 75 | ≤ 100 | ≥ 75 |  |  |

The next lines start with results.

| IC50 [1] [nM] | inhibition at 1 µM ([1]; 1 μM) [%] | IC50 [2] [nM] | inhibition at 1 µM ([2]; 1 μM) [%] | Compound | MAGL % inh. 1 μM (mouse) ([1]; 1 μM) | FAAH % inh. 1 μM (mouse) ([2]; 1 μM) |
| --- | --- | --- | --- | --- | --- | --- |
|  | ≥ 75 |  | ≥ 75 | CC(=O)N(C)c1cnn(C(=O)N2CCC3(CCN(Cc4cc(N5CCCC5)ccc4C(F)(F)F)C3)C2)c1 (stereo not drawn) [Example 73, N-methyl-N-(1-(7-(5-(pyrrolidin-1-yl)-2-(trifluoromethyl)benzyl)-2,7-diazaspiro[4.4]nonane-2-carbonyl)-1H-pyrazol-4-yl)acetamide] |  |  |
|  | ≥ 75 |  | ≥ 75 | CC(=O)N(C)c1cnn(C(=O)N2CCC3(CCN(Cc4ccc(-c5cncnc5)cc4Cl)C3)C2)c1 (stereo not drawn) [Example 262, N-(1-(7-(2-chloro-4-(pyrimidin-5-yl)benzyl)-2,7-diazaspiro[4.4]nonane-2-carbonyl)-1H-pyrazol-4-yl)-N-methylacetamide] |  |  |
| ≤ 100 | ≥ 75 | 100 to 1000 | ≥ 75 | CC(=O)N(C)c1cnn(C(=O)N2CCC3(CC2)CN(Cc2ccccc2Cl)C3)c1 [Example 40, N-(1-(2-(2-chlorobenzyl)-2,7-diazaspiro[3.5]nonane-7-carbonyl)-1H-pyrazol-4-yl)-N-methylacetamide] |  |  |
| 100 to 1000 | ≥ 75 | 1000 to 10000 | ≥ 75 | CC(=O)N(C)c1cnn(C(=O)N2CCN(Cc3ccc(Cl)cc3)CC2)c1 [Example 194, N-(1-(4-(4-chlorobenzyl)piperazine-1-carbonyl)-1H-pyrazol-4-yl)-N-methylacetamide] |  |  |
|  | 25 to 50 |  | 50 to 75 | CC(=O)N(C)c1cnn(C(=O)N2CC3(CCN(Cc4ccc(C(F)(F)F)cc4)CC3)C2)c1 [Example 20, N-methyl-N-(1-(7-(4-(trifluoromethyl)benzyl)-2,7-diazaspiro[3.5]nonane-2-carbonyl)-1H-pyrazol-4-yl)acetamide] |  |  |
| 100 to 1000 | ≥ 75 | ≤ 100 | ≥ 75 | CC(=O)N(C)c1cnn(C(=O)N2CCC3(CCN(Cc4cccc(C(F)(F)F)c4)C3)C2)c1 (stereo not drawn) [Example 64, N-methyl-N-(1-(7-(3-(trifluoromethyl)benzyl)-2,7-diazaspiro[4.4]nonane-2-carbonyl)-1H-pyrazol-4-yl)acetamide] |  |  |
|  | 50 to 75 |  | ≥ 75 | CC(=O)N(C)c1cnn(C(=O)N2CC3(CCN(Cc4ccc(Cl)cc4)CC3)C2)c1 [Example 84, N-(1-(7-(4-chlorobenzyl)-2,7-diazaspiro[3.5]nonane-2-carbonyl)-1H-pyrazol-4-yl)-N-methylacetamide] |  |  |
|  | ≥ 75 |  | ≥ 75 | CC(=O)N(C)c1cnn(C(=O)N2CCC3(CCN(Cc4cc(C(F)(F)F)ccc4Cl)C3)C2)c1 (stereo not drawn) [Example 71, N-(1-(7-(2-chloro-5-(trifluoromethyl)benzyl)-2,7-diazaspiro[4.4]nonane-2-carbonyl)-1H-pyrazol-4-yl)-N-methylacetamide] |  |  |
| 100 to 1000 | ≥ 75 | 100 to 1000 | ≥ 75 | CC(=O)N(C)c1cnn(C(=O)N2CCN(Cc3cccc(Cl)c3)CC2)c1 [Example 193, N-(1-(4-(3-chlorobenzyl)piperazine-1-carbonyl)-1H-pyrazol-4-yl)-N-methylacetamide] |  |  |
| 100 to 1000 | ≥ 75 | 100 to 1000 | ≥ 75 | CC(=O)N(C)c1cnn(C(=O)N2CCC3(CCN(Cc4ccc(Cl)cc4)C3)CC2)c1 [Example 188, N-(1-(2-(4-chlorobenzyl)-2,8-diazaspiro[4.5]decane-8-carbonyl)-1H-pyrazol-4-yl)-N-methylacetamide] |  |  |
